Results: article PMC8571951, “An activity‐based bioprobe differentiates a novel small molecule inhibitor from a LOXL2 antibody and provides renewed promise for anti‐fibrotic therapeutic strategies” (Clinical and Translational Medicine, 2021)

Experiments:
Type in all cases: biochemical
rh LOXL2 = molecular target: T1, rh LOXL2 (Homo sapiens, UniProt Q9Y4K0); experiment: Jump dilution assay, rh LOXL2
T1 sequence (Q9Y4K0 26-774): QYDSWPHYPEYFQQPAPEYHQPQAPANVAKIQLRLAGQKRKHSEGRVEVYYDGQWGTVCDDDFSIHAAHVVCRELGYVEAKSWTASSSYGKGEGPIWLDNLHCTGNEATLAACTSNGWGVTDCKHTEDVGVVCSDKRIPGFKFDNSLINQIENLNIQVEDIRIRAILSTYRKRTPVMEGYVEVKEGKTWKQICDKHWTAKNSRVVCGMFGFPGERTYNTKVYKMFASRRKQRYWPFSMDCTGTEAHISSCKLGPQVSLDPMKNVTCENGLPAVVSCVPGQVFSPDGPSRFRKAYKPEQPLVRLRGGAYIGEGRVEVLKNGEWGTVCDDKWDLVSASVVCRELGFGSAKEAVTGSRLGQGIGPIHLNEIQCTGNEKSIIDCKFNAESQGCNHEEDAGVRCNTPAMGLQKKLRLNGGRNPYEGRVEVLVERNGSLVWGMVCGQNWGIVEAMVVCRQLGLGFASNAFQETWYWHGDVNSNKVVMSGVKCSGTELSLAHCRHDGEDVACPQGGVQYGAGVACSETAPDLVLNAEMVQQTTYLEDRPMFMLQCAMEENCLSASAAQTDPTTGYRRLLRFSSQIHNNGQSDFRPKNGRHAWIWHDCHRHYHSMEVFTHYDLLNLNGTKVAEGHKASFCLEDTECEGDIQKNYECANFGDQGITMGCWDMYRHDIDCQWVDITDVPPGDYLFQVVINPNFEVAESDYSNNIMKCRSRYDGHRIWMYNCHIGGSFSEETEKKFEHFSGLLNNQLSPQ
Source text: (§1) FIGURE 1 Characteristics of the activity‐based probe (ABP) PXS‐5878. (A) Chemical structure of PXS‐5878, with functional subunits denoted with different colours. The fluoroallylamine moiety (blue) was designed to interact with the lysine tyrosylquinone (LTQ) co‐factor within the lysyl oxidase active sites. An extended linker (green) was incorporated to provide optimal separation between the reactive functional group and the tag, avoiding unfavourable steric hindrance. Biotin was selected as a tag, with higher sensitivity found to be achieved using a double tag (red), resulting in PXS‐5878 as the preferred ABP. (B) Concentration‐dependent inhibition of recombinant human (rh) lysyl oxidase‐like 1‐4 (LOXL1‐4) and native bovine LOX in a standard Amplex Red assay with 30 min pre‐incubation; n = 3–4 independent experiments, standard error of mean (SEM). Native bovine LOX was used as a surrogate for human LOX as both enzymes have similar pharmacology for fluoroallylamines.[2], [9] (C) Irreversible nature of PXS‐5878 enzyme inhibition confirmed using a jump dilution assay. Enzyme (rh LOXL1, rh LOXL2 or LOXL3) was pre‐incubated with 10 × IC50 of PXS‐5878 for 30 min, then diluted 100x and remaining activity assessed by Amplex Red assay. […] Each value is an average of three experiments. (D) Schematic representation of the assay development to detect lysyl oxidase activity by PXS‐5878 using a direct enzyme‐linked assay with lysyl oxidases as the target analyte. HRP: horseradish peroxidase; TMB: 3,3′,5,5′‐tetramethylbenzidine, a chromogenic substrate. […]
For fluoroallylamine-based inhibitors, replacement of fluorine with hydrogen (leading to the corresponding des-fluoro structures) results in a drop in potency and a switch from irreversible to reversible inhibition. […] (B) For PXS-5878, removal of the fluoro moiety in a simplified analogue results in a significant drop in potency for LOXL2, meaning (ir)reversibility cannot be accurately measured.

LOXL3 = molecular target: T2, LOXL3 (Homo sapiens, UniProt P58215); experiment: Jump dilution assay, LOXL3; settings: 10 × IC50 for 30 min, diluted 100x
T2 sequence (P58215 26-753): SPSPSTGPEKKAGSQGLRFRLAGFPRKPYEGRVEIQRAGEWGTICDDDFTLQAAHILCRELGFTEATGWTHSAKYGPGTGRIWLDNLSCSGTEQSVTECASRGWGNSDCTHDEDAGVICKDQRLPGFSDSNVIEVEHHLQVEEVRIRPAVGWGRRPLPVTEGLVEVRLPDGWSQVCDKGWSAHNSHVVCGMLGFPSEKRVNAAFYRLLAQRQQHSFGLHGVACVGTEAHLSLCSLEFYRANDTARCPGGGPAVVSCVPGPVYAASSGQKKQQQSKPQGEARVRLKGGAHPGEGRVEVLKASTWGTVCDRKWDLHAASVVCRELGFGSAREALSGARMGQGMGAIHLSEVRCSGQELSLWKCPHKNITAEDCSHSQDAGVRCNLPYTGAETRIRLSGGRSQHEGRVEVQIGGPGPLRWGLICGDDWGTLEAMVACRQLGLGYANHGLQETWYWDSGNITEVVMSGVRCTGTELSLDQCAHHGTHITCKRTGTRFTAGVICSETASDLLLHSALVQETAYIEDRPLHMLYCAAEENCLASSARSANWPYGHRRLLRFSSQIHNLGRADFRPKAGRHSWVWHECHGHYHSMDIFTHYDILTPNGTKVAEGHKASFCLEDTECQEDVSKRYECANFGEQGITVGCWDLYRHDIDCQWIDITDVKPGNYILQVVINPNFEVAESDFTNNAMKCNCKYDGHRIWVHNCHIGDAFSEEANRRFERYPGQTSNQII
Source text: as §1, with “experiments.” for “experiments. (D) Schematic representation of the assay development to detect lysyl oxidase activity by PXS‐5878 using a direct enzyme‐linked assay with lysyl oxidases as the target analyte. HRP: horseradish peroxidase; TMB: 3,3′,5,5′‐tetramethylbenzidine, a chromogenic substrate.”

rh LOXL1 = molecular target: T3, rh LOXL1 (Homo sapiens, UniProt Q08397); experiment: Jump dilution assay, rh LOXL1; settings: 10 × IC50 for 30 min, diluted 100x
T3 sequence (Q08397 96-574): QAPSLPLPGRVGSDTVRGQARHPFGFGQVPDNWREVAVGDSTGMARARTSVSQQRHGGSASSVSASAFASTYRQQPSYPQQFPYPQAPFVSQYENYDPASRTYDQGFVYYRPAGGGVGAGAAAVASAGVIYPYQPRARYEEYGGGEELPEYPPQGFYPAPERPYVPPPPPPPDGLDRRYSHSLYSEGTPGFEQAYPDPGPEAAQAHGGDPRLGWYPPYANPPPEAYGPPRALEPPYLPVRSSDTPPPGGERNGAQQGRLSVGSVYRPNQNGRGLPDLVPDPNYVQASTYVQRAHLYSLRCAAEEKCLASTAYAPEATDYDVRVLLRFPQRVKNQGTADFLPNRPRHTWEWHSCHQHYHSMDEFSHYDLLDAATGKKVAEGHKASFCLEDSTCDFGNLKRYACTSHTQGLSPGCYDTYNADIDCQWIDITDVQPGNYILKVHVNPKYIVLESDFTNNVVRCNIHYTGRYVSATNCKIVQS
Source text: as §1, with “experiments.” for “experiments. (D) Schematic representation of the assay development to detect lysyl oxidase activity by PXS‐5878 using a direct enzyme‐linked assay with lysyl oxidases as the target analyte. HRP: horseradish peroxidase; TMB: 3,3′,5,5′‐tetramethylbenzidine, a chromogenic substrate.”

SMILES | Recovery of enzyme activity after jump dilution (rh LOXL2; rh LOXL2, 10 × IC50 for 30 min, diluted 100x) | Recovery of enzyme activity after jump dilution (LOXL3) | Recovery of enzyme activity after jump dilution (rh LOXL1) | Mode of inhibition (reversible/irreversible) of LOXL2 (rh LOXL2)
NC/C=C(\F)CS(=O)(=O)c1cccc(Cn2cc(-c3cc(OCCCc4cn(CCCCC[C@@H]5SC[C@@H]6NC(=O)N[C@@H]65)nn4)cc(OCCCc4cn(CCCCC[C@@H]5SC[C@@H]6NC(=O)N[C@@H]65)nn4)c3)nn2)c1 [PXS‐5878] | Little to no recovery in enzyme activity | Little to no recovery in enzyme activity | Little to no recovery in enzyme activity | –
CC(C)c1c(Cc2ccc(S(C)(=O)=O)nc2)c2ncccc2n1CC=CCN [des‐fluoro‐PXS‐5338] | – | – | – | reversible inhibitor
